These are literature values, as cited in patent US4344438A, “Optical sensor of plasma constituents” (The United States of America as represented by the …, priority 1980, dated 1982).

The series addresses Concanavalin-A (Con-A). The note with it: from So and Goldstein, Biochem., Biophys. Acta 165, 398 (1968); read-out: Binding constant K of sugar to Concanavalin-A.

Regarding `OC[C@H]1O[C@H](O[C@H]2[C@H](O)[C@@H](O)C(O)O[C@@H]2CO)[C@H](O)[C@@H](O)[C@@H]1O` (mixture of isomers) [Maltose], the Kd was 350 µM.
In the case of `O=C(CO)[C@@H](O)[C@H](O)[C@H](O)CO` [Fructose], the Kd is 730 µM.
With `OC[C@H]1O[C@H](OC[C@H]2OC(O)[C@H](O)[C@@H](O)[C@@H]2O)[C@H](O)[C@@H](O)[C@@H]1O` (some centres unmarked) [Isomaltose], the Kd is 180 µM.
Turning to `OC[C@H]1O[C@@](CO)(O[C@H]2O[C@H](CO)[C@@H](O)[C@H](O)[C@H]2O)[C@@H](O)[C@@H]1O` [Sucrose], the Kd is 1900 µM.
With `O=[N+]([O-])c1ccc(O[C@H]2O[C@H](CO)[C@@H](O)[C@H](O)[C@@H]2O)cc1` [p-nitrophenol-α-D mannopyranoside], the Kd was 29.4 µM.
